According to patent US20260265238A1, “COMPOUNDS AND PHARMACEUTICAL COMPOSITIONS THAT DEGRADE SWI/SNF-RELATED MATRIX-ASSOCIATED ACTIN-DEPENDENT REGULATOR OF CHROMATIN SUBFAMILY A” (Plexium, Inc., priority 2023, published 2026):

Experiments:
[1] = target: T1, SMARCA2-HiBiT HeLa cells (protein which is expressed from the SMARCA2 gene) (Homo sapiens, UniProt P51531); test: SMARCA2 degradation assay (HiBiT-fusion HeLa cell line, 24 h, luminescence); format: cell-based
T1 construct: protein which is expressed from the SMARCA2 and SMARCA4 genes; host or cells: HeLa (SMARCA2-HiBiT engineered line)
T1 sequence (P51531 whole entry, the tested form may be a part): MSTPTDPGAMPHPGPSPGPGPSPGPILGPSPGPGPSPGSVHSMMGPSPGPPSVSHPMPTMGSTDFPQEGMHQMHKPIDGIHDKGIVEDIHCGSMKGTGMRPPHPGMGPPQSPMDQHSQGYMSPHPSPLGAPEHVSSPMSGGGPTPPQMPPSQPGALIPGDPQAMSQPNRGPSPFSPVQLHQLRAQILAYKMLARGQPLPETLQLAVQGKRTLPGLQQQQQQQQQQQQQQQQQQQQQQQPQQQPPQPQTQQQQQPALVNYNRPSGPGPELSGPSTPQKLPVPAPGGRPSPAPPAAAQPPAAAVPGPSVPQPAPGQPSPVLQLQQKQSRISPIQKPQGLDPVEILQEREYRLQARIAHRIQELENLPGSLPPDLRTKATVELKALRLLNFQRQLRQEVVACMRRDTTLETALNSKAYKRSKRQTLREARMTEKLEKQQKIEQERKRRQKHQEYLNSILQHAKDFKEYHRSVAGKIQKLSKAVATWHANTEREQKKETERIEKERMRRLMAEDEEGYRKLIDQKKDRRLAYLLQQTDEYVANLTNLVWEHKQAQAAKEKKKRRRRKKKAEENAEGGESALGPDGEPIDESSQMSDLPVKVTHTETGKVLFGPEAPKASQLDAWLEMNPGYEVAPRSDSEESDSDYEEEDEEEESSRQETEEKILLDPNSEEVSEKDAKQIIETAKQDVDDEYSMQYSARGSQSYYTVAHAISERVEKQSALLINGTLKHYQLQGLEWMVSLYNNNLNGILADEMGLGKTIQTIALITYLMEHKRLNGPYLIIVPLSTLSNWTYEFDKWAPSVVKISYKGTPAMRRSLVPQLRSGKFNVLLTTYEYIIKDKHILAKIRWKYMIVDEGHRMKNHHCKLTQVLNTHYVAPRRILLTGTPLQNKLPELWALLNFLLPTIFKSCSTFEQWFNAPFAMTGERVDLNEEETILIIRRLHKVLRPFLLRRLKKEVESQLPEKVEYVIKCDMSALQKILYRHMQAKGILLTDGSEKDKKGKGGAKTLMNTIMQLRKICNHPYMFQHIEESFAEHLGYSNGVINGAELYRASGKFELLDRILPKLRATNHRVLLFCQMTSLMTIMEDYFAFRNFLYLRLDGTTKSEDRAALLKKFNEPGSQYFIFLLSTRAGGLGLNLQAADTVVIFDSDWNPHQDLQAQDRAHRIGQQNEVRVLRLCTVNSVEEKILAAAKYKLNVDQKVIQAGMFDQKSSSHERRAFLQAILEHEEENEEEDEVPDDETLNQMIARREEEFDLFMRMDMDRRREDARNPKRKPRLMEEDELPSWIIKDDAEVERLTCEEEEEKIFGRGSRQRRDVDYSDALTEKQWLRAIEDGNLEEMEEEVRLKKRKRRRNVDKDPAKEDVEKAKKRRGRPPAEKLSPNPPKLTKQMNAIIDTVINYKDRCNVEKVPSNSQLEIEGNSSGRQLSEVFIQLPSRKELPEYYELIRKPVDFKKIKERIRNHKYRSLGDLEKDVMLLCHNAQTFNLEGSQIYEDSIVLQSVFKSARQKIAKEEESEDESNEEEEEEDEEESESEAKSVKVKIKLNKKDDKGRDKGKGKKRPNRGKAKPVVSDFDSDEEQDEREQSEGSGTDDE
How it was run: (§1)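 SMARCA2- or SMARCA4-HiBiT HeLa cells seeded overnight at 37° C, then given compound as a 10-point dilution (typically 10 μM to 300 pM) for 24 h at 37° C. Protein level read by HiBiT lytic detection luminescence; DC50 from dose-response curves; degradation also scored at 1 μM.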

[2] = target: T2, SMARCA4-HiBiT HeLa cells (protein which is expressed from the SMARCA4 gene) (Homo sapiens, UniProt P51532); test: SMARCA4 degradation assay (HiBiT-fusion HeLa cell line, 24 h, luminescence); format: cell-based
T2 construct: protein which is expressed from the SMARCA2 and SMARCA4 genes; host or cells: HeLa (SMARCA4-HiBiT engineered line)
T2 sequence (P51532 whole entry, the tested form may be a part): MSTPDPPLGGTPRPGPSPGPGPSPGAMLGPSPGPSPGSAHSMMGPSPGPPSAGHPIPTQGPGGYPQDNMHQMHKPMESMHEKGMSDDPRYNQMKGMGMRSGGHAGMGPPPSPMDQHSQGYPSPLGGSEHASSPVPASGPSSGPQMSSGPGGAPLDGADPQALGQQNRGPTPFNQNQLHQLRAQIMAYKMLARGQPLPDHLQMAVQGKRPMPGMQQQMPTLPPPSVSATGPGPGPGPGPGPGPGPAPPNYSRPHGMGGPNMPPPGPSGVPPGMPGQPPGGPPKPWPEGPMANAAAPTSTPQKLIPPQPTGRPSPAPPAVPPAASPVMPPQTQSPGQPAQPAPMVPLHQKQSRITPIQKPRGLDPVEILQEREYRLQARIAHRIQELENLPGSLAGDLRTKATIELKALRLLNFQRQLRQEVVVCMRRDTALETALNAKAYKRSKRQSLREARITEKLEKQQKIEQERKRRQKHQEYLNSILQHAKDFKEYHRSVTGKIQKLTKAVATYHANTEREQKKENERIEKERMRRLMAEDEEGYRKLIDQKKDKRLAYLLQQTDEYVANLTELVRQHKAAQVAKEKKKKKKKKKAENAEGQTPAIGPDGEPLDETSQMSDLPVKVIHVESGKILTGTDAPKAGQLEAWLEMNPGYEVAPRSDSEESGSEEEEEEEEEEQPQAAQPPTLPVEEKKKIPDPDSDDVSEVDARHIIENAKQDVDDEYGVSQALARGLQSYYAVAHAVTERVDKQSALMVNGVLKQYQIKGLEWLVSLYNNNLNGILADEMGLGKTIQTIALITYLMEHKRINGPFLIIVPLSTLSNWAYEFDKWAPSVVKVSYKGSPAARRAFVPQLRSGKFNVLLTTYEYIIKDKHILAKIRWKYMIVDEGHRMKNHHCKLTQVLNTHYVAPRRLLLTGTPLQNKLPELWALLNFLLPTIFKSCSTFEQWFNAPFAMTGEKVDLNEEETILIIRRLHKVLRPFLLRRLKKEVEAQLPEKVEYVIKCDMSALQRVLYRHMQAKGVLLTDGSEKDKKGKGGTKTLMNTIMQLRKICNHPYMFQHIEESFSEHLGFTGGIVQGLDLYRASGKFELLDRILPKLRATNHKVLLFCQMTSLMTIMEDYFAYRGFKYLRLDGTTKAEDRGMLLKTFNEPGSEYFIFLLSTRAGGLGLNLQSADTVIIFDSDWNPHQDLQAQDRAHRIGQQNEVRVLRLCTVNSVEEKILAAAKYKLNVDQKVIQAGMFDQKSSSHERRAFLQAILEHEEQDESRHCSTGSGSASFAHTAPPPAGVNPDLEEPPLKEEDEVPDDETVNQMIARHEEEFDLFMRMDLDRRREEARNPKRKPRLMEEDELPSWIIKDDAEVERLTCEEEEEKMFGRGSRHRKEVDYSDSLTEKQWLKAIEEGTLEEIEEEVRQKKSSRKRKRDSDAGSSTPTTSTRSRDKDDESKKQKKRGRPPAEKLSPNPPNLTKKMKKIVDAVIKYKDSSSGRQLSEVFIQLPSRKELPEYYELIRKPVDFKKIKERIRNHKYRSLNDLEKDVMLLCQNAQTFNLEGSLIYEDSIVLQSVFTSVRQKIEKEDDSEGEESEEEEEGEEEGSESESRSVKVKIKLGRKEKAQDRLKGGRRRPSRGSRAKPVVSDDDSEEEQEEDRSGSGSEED
How it was run: as §1

Compound	DC50 [1]	SMARCA2 % Degradation @ 1 μM ([1]; @ 1 μM)	DC50 [2]	inhibition at 1 µM ([2]; @ 1 μM)	SMARCA2 % Degradation @ 1 μM ([1]; 1 μM)	inhibition at 1 µM ([2]; 1 μM)
Nc1nnc(-c2ccccc2O)cc1N1CCCN(c2ccnc(C#CCN3CCCC3)n2)CC1 [Compound P-366, 0-[6-amino-5-(4-{2-[3-(1-pyrrolidinyl)-1-propynyl]-4-pyrimidinyl}-1,4-diazepan-1-yl)-3-pyridazinyl]phenol]	50 to 500 nM	+++ (+++=>70%)	50 to 500 nM	> 70%		
CN(C)CC#Cc1nccc(N2CCCC(c3cc(-c4ccccc4O)nnc3N)CC2)n1 (stereo not drawn) [Compound P-172, o-[6-amino-5-(1-{2-[3-(dimethylamino)-1-propynyl]-4-pyrimidinyl}-4-azepanyl)-3-pyridazinyl]phenol]	< 50 nM	++ (++=30-70%)	< 50 nM	30 to 70%		
Nc1nnc(-c2ccccc2O)cc1N1CCN(c2ccnc(C#CCNC(=O)c3cccc4ccoc34)n2)CC1 [Compound P-63, N-(3-(4-(4-(3-amino-6-(2-hydroxyphenyl)pyridazin-4-yl)piperazin-1-yl)pyrimidin-2-yl)prop-2-yn-1-yl)benzofuran-7-carboxamide]	50 to 500 nM	++ (++=30-70%)	50 to 500 nM	30 to 70%		
NCC#Cc1nccc(N2CCC3(CC2)CCN(c2cc(-c4ccccc4O)nnc2N)CC3)n1 [Compound P-90, 2-(6-amino-5-(9-(2-(3-aminoprop-1-yn-1-yl)pyrimidin-4-yl)-3,9-diazaspiro[5.5]undecan-3-yl)pyridazin-3-yl)phenol]	500 to 5000 nM	+ (+=<30%)	500 to 5000 nM	< 30%		
C/C=C/c1nccc(N2CCCN(c3cc(-c4ccccc4O)nnc3N)CC2)n1 [Compound P-158, o-(6-amino-5-{4-[2-(1-propenyl)-4-pyrimidinyl]-1,4-diazepan-1-yl}-3-pyridazinyl)phenol]	50 to 500 nM	??	50 to 500 nM	30 to 70%		
Nc1nnc(-c2ccccc2O)cc1N1CCCN(c2ccnc(C#CCN3CCCOCC3)n2)CC1 [Compound P-379, 0-[6-amino-5-(4-{2-[3-(1,4-oxazepan-4-yl)-1-propynyl]-4-pyrimidinyl}-1,4-diazepan-1-yl)-3-pyridazinyl]phenol]	50 to 500 nM	+++ (+++=>70%)	50 to 500 nM	30 to 70%		
CC1CCN(c2ccnc(C#CCNC(=O)c3cc4ncccn4n3)n2)CCN1c1cc(-c2ccccc2O)nnc1N (stereo not drawn) [Compound P-19, N-(3-(4-(4-(3-amino-6-(2-hydroxyphenyl)pyridazin-4-yl)-5-methyl-1,4-diazepan-1-yl)pyrimidin-2-yl)prop-2-yn-1-yl)pyrazolo[1,5-a]pyrimidine-2-carboxamide]	500 to 5000 nM	++ (++=30-70%)	500 to 5000 nM	30 to 70%		
CC(C)(C)OC(=O)NCC#Cc1nccc(N2CC3CC(Oc4cc(-c5ccccc5O)nnc4N)CC3C2)n1 (stereo not drawn) [Compound P-221, 4-(3-{2-[3-(tert-butoxycarbonylamino)-1-propynyl]-4-pyrimidinyl}-3-azabicyclo[3.3.0]oct-7-yloxy)-6-(o-hydroxyphenyl)-3-pyridazinamine]	50 to 500 nM	+++ (+++=>70%)	50 to 500 nM	> 70%		
C[C@@H]1COC[C@H](C)N1CC#Cc1nccc(N2CCCN(c3cc(-c4ccccc4O)nnc3N)CC2)n1 [Compound P-318, 0-{5-[4-(2-{3-[(3R,5S)-3,5-dimethyl-4-morpholinyl]-1-propynyl}-4-pyrimidinyl)-1,4-diazepan-1-yl]-6-amino-3-pyridazinyl}phenol]	50 to 500 nM	++ (++=30-70%)	50 to 500 nM	30 to 70%		
Nc1nnc(-c2ccccc2O)cc1N1CCCN(c2ccnc(C#CCNC3CCOCC3)n2)CC1 [Compound P-300, 0-[6-amino-5-(4-{2-[3-(tetrahydro-2H-pyran-4-ylamino)-1-propynyl]-4-pyrimidinyl}-1,4-diazepan-1-yl)-3-pyridazinyl]phenol]	50 to 500 nM	+++ (+++=>70%)	50 to 500 nM	30 to 70%		
CC(C)(O)C#Cc1nccc(N2CCCN(c3cc(-c4ccccc4O)nnc3N)CC2)n1 [Compound P-341, 4-(4-{4-[3-amino-6-(0-hydroxyphenyl)-4-pyridaziny1]-1,4-diazepan-1-yl}-2-pyrimidinyl)-2-methyl-3-butyn-2-ol]	500 to 5000 nM	++ (++=30-70%)	500 to 5000 nM	< 30%		
C[C@@H]1CCN(c2cc(-c3ccccc3O)nnc2N)CCN1c1ccc(C#N)c(C#CCn2ccnc2)n1 [Compound P-429, 6-{(R)-4-[3-amino-6-(o-hydroxyphenyl)-4-pyridazinyl]-7-methyl-1,4-diazepan-1-y1}-2-[3-(1-imidazolyl)-1-propynyl]nicotinonitrile]	50 to 500 nM		50 to 500 nM		+++ (+++=>70%)	30 to 70%
CC(C#Cc1ncc(F)c(N2CCN(c3cc(-c4ccccc4O)nnc3N)CC[C@H]2C)n1)N(C)C (stereo partly drawn) [Compound P-208]	50 to 500 nM	++ (++=30-70%)	50 to 500 nM	< 30%		
CN(C)CC#Cc1nccc(N2CC(n3cc(-c4cc(-c5ccccc5O)nnc4N)cn3)C2)n1 [Compound P-216, o-{6-amino-5-[1-(1-{2-[3-(dimethylamino)-1-propynyl]-4-pyrimidinyl}-3-azetidinyl)-4-pyrazolyl]-3-pyridazinyl} phenol]	< 50 nM	++ (++=30-70%)	< 50 nM	30 to 70%		
C[C@@H]1CCN(c2cc(-c3ccccc3O)nnc2N)CCN1c1ccnc(C#CCN2C3CCCC2CC3)n1 [Compound P-228, o-{5-[(R)-4-(2-{3-(8-azabicyclo[3.2.1]oct-8-yl)-1-propynyl}-4-pyrimidinyl)-5-methyl-1,4-diazepan-1-y1]-6-amino-3-pyridazinyl}phenol]	< 50 nM	++ (++=30-70%)	< 50 nM	30 to 70%		
Nc1nnc(-c2ccccc2O)cc1N1CC2CN(c3ccnc(C#CCNC(=O)c4cc5ncccn5n4)n3)C2C1 (stereo not drawn) [Compound P-43, N-(3-(4-(3-(3-amino-6-(2-hydroxyphenyl)pyridazin-4-yl)-3,6-diazabicyclo[3.2.0]heptan-6-yl)pyrimidin-2-yl)prop-2-yn-1-yl)pyrazolo[1,5-a]pyrimidine-2-carboxamide]	500 to 5000 nM	++ (++=30-70%)	50 to 500 nM	30 to 70%		
Nc1nnc(-c2ccccc2O)cc1N1CCC2(CCN(c3ccnc(C#CCN4CC5CC4C5)n3)CC2)C1 [Compound P-187, o-{6-amino-5-[8-(2-{3-(2-azabicyclo[2.1.1]hex-2-yl)-1-propynyl}-4-pyrimidinyl)-2,8-diaza-2-spiro[4.5]decyl]-3-pyridazinyl}phenol]	50 to 500 nM	++ (++=30-70%)	50 to 500 nM	30 to 70%		
C[C@@H]1CCN(c2cc(-c3ccccc3O)nnc2N)CCN1c1ccnc(C#C[C@@H](C)O)c1 [Compound P-401, 0-{5-[(R)-4-{2-[(R)-3-hydroxy-1-butynyl]-4-pyridyl}-5-methyl-1,4-diazepan-1-yl]-6-amino-3-pyridazinyl}phenol]	50 to 500 nM		50 to 500 nM		+++ (+++=>70%)	> 70%
